Source: US7919508B2, “3-piperidinylisochroman-5-ols as dopamine agonists” (Aventis Pharmaceuticals Inc., priority 2004, dated 2011)
Structures can show the parent of a compound that is named as a salt.

Columns and labels:
D1 receptor = target: T1, D1 receptor (Homo sapiens, UniProt P21728); experiment: D1 Activation Adenylyl Cyclase Assay (cAMP FlashPlate, D1 transfected CHO cell line); assay type: cell-based; details: agonist activity at the D1 receptor, adenylate cyclase assay, D1 transfected CHO cell line; read-out: D1 EC50
T1 construct: expressed in transfected cells; host or cells: D1 transfected CHO cell line
T1 sequence (P21728 whole entry): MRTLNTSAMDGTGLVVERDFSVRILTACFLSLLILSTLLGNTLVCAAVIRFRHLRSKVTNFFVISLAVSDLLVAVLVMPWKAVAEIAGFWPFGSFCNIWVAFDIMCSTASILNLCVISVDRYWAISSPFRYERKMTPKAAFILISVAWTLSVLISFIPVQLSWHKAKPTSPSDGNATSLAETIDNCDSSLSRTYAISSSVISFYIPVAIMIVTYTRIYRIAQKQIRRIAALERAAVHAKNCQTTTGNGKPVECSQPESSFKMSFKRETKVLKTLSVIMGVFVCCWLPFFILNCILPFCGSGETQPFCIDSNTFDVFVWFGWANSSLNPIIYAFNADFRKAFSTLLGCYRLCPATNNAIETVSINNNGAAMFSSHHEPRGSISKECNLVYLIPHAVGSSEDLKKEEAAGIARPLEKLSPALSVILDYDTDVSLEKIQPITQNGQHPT
Description: D1 Activation Adenylyl Cyclase Assay
Purpose: To measure D1-agonist activity compounds using an Adenylyl Cyclase Activation Flash Plate Assay from NEN.
Buffers: Activation and Detection buffers are provided from NEN: Catalog # SMP004A.
Maintenance of D1 transfected CHO cell line: • 1. Cells are grown in a 150 cc flask in an incubator at 37° C. with 5% CO2 for 2-3 days (4 maximum) until confluent. • 2. Aspirate off old media (Cells adhere to the plastic flask), wash 2× with sterile PBS. • 3. Add ˜5 mL of Trypsin EDTA (enough to cover bottom of the flask) for 5 min. at RT. • 4. Stop digestion with 15 mL of Media (Ham's F12 plus 10% FBS, 1% P/S, 400 μg/mL G418). • Bang flask on counter to release them from the flask. • 5. Add 2 mL of this to 30 mL of Media in a fresh flask. Return to incubator. Preparation of Cells for Assay: • 1. Loosen the cells with 5 mL Vercine (EDTA)/flask for 10 minutes in incubator. • 2. Add 20 mL of Serum-free media/flask. Transfer to 50-mL Falcon tube. • 3. Spin down cells at 1000 RPM for 5 minutes at 4° C. • 4. Aspirate off old media and resuspend in 5 mL of Serum-free media/plate to be done. • 5. Dilute 10 μL 1/10 in 90 μL Trypan Blue solution and count with a hemocytometer. • Count (live cells only) all four areas and average them. • Count X 10^5 equals cells/mL (including accounting for dilution in Trypan). • 6. Dilute to 50,000 cells/50 μL (1,000,000 cells/mL) in Serum-free media. • 7. Put 50 μL/well in Rows 3-12 of a cAMP FlashPlate. • 8. Put in incubator at 37° C. for 2-4 hours, to allow cells to recover and attach. Adenylyl Cyclase Activation Assay: • 1. Prepare the cAMP standards: • Add 130 μL/well of stimulation buffer to each row of a separate 96-well “standard” plate, 2 columns/plate. • Dilute stock cAMP standard 1/5 with stimulation buffer (final concentration is 1000 pmol/mL). Add 130 μL of this to row A. • Make 1/2 serial dilutions by adding 130 μL from each well to the next (A-G), mixing between each. • Final concentrations are: • A: 500, B: 250, C: 125, D: 62.5, E: 31.25, F: 15.6, G: 7.8, H: 0 pmol/mL. • Place 100 μL from each row from 2 columns of the standard plate into columns 1 and 2 of each “reaction” plate. • 2. Prepare the negative and positive control in the “reaction” plate: • Column 3, rows A-D, add 100 μL stimulation buffer (negative control). • Column 3, rows E-H, add 90 μL of stimulation buffer plus 10 μL of 200 μM APO (positive control, […]). (10 μL 10 mM APO, plus 490 μL stim. buffer=1/50 dilution.) • 3. Prepare the agonist compound dilutions in the “compound” plate: • Add 80 μL of stimulation buffer to row A (One column for each compound), and 90 μL of stimulation buffer to rows B—H. • Add 20 μL of 10 mM of each compound to appropriate row A. • Make 1/10 serial dilutions by adding 10 μL from each well to the next (A-H), mixing between each. • 4. […]. Prepare Detection/Stop buffer by adding 90 μL/plate of cAMP-^125I to 10 mL/plate plus 6 mL (for dead volume) of detection buffer. Steps 6-8 performed with the Multi-Mek. • 6. Add 50 μL to each well of the FlashPlate with CHO cells set up earlier. • 7. Incubate at RT for 8 minutes. • 8. Stop reaction by adding 100 μL of detection/stop buffer to each well. • 9. Cover with plastic film and incubate at RT for 16-24 hours (don't wait more than 24 hours). • 10. Count in a Packard Top-Count. Calculations: • 1. Raw signals generated by cAMP standard wells, without cells, are averaged at each cAMP concentration and converted to % B/Bo by dividing the raw signal at each cAMP concentration by the raw signal with no cAMP added. • 2. These values are used to generate a standard curve by plotting cAMP concentration versus % B/Bo. • 3. Raw data for each compound at each concentration is also converted to % B/B. by the same method. • 4. These values are then converted to pmol cAMP/mL using the standard curve. • 5. These cAMP values are then averaged across the three replicates for each compound concentration. • 6. […]

[1] = target: T2, human dopamine D1 receptor (Homo sapiens, UniProt P21728); experiment: [3H]-SCH-23390 binding to cloned human dopamine D1 receptors (CHO cell membranes); details: competitive binding, [3H]-SCH-23390, cloned human D1 in CHO membranes; read-out: D1 affinity Ki
T2 construct: A 1.4 Kb Hind III to Xho I fragment was subcloned into the vector pMMLV; expressed in transfected cells; host or cells: CHO cells, clone CHO-D1M#9 (plasmid pHD1MMLV), membranes
T2 sequence (P21728 whole entry, the tested form may be a part): as the sequence (P21728 whole entry) above

[2] = target: human dopamine D2Long (D2L) receptors (Homo sapiens, UniProt P14416)
human dopamine D2Long (D2L) receptors, sequence (P14416 whole entry): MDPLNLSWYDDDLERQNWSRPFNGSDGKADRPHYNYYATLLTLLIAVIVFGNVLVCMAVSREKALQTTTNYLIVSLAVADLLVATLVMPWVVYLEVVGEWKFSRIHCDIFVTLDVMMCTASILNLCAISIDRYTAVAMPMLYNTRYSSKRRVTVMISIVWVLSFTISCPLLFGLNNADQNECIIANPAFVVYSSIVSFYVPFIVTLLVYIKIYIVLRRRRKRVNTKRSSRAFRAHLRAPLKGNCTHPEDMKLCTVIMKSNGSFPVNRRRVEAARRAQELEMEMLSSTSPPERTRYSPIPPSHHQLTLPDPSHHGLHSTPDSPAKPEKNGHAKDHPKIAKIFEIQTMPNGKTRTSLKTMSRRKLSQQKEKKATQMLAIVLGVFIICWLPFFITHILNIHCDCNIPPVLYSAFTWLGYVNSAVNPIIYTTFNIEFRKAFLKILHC

| SMILES | EC50 (D1 receptor) | Ki [1] | Ki [2] |
| --- | --- | --- | --- |
| Cc1ccc2c(c1O)C[C@@H](C1CCN(CCC(C)NC(=O)c3ccc(Cl)cc3)CC1)O[C@H]2CN (stereo partly drawn) [Example 13, N-{3-[4-((1R,3S)-1-Aminomethyl-5-hydroxy-6-methyl-isochroman-3-yl)-piperidin-1-yl]-1-methyl-propyl}-4-chloro-benzamide dihydrochloride] | 30 nM | 128 nM | 361 nM |
| Cc1ccc2c(c1O)C[C@@H](C1CCN(CCC(C)NC(=O)c3ccc(C(F)(F)F)cc3)CC1)O[C@H]2CN (stereo partly drawn) [Example 16, N-{3-[4-((1R,3S)-1-Aminomethyl-5-hydroxy-6-methyl-isochroman-3-yl)-piperidin-1-yl]-1-methyl-propyl}-4-trifluoromethyl-benzamide dihydrochloride] | 56 nM | 149 nM | 379 nM |
| Cc1ccc2c(c1O)C[C@@H](C1CCN(CCC(C)NC(=O)c3ccc(Cl)cc3Cl)CC1)O[C@H]2CN (stereo partly drawn) [Example 17, N-{3-[4-((1R,3S)-1-Aminomethyl-5-hydroxy-6-methyl-isochroman-3-yl)-piperidin-1-yl]-1-methyl-propyl}-2,4-dichloro-benzamide dihydrochloride] | 18 nM | 138 nM | ≥ 100000 nM |
| Cc1ccc2c(c1O)C[C@@H](C1CCN(CCC(C)NC(=O)c3ccc4ccccc4c3)CC1)O[C@H]2CN (stereo partly drawn) [Example 19, Naphthalene-2-carboxylic acid {3-[4-((1R,3S)-1-aminomethyl-5-hydroxy-6-methyl-isochroman-3-yl)-piperidin-1-yl]-1-methyl-propyl}-amide dihydrochloride] | 6.1 nM | 158 nM | 310 nM |
| Cc1ccc2c(c1O)C[C@@H](C1CCN(CCC(C)NC(=O)c3cc4ccccc4s3)CC1)O[C@H]2CN (stereo partly drawn) [Example 20, Benzo[b]thiophene-2-carboxylic acid {3-[4-((1R,3S)-1-aminomethyl-5-hydroxy-6-methyl-isochroman-3-yl)-piperidin-1-yl]-1-methyl-propyl}-amide dihydrochloride] | 61 nM | 52.4 nM | 265 nM |
| Cc1ccc2c(c1O)C[C@@H](C1CCN(CCC(C)NC(=O)c3ccccc3)CC1)O[C@H]2CN (stereo partly drawn) [Example 21, N-{3-[4-((1R,3S)-1-Aminomethyl-5-hydroxy-6-methyl-isochroman-3-yl)-piperidin-1-yl]-1-methyl-propyl}-benzamide dihydrochloride] | 14 nM | 120 nM | ≥ 100000 nM |
| Cc1ccc2c(c1O)C[C@@H](C1CCN(CCC(C)NC(=O)c3ccc(F)cc3)CC1)O[C@H]2CN (stereo partly drawn) [Example 22, N-{3-[4-((1R,3S)-1-Aminomethyl-5-hydroxy-6-methyl-isochroman-3-yl)-piperidin-1-yl]-1-methyl-propyl}-4-fluoro-benzamide dihydrochloride] | 24 nM | 114 nM | 564 nM |
| Cc1ccc2c(c1O)C[C@@H](C1CCN(CCC(C)NC(=O)c3cccs3)CC1)O[C@H]2CN (stereo partly drawn) [Example 25, Thiophene-2-carboxylic acid {3-[4-((1R,3S)-1-aminomethyl-5-hydroxy-6-methyl-isochroman-3-yl)-piperidin-1-yl]-1-methyl-propyl}-amide dihydrochloride] | 54 nM | 56.1 nM | 218 nM |
| Cc1ccc2c(c1O)C[C@@H](C1CCN(Cc3ccc(F)cc3)CC1)O[C@H]2CN [Example 26, (1R,3S)-1-Aminomethyl-3-[1-(4-fluoro-benzyl)-piperidin-4-yl]-6-methyl-isochroman-5-ol dihydrobromide] | 11 nM | 33 nM | ≥ 10000 nM |
| Cc1ccc2c(c1O)C[C@@H](C1CCN(CC(c3ccccc3)c3ccccc3)CC1)O[C@H]2CN [Example 28, (1R,3S)-1-Aminomethyl-3-[1-(2,2-diphenyl-ethyl)-piperidin-4-yl]-6-methyl-isochroman-5-ol dihydrobromide] | 131 nM | 82 nM | 180 nM |
| Cc1ccc2c(c1O)C[C@@H](C1CCN(CC(C)c3ccccc3)CC1)O[C@H]2CN (stereo partly drawn) [Example 29, (1R,3S)-1-Aminomethyl-3-[1-(2-phenyl-propyl)-piperidin-4-yl]-6-methyl-isochroman-5-ol dihydrobromide] | 40 nM | 64 nM | ≥ 10000 nM |

Other lines, results leading:

| EC50 (D1 receptor) | Ki [1] | Ki [2] | SMILES |
| --- | --- | --- | --- |
| 60 nM | 55.2 nM | ≥ 10000 nM | Cc1ccc2c(c1O)C[C@@H](C1CCN(C(C)Cc3ccccc3)CC1)O[C@H]2CN (stereo partly drawn) [Example 30, (1R,3S)-1-Aminomethyl-6-methyl-3-[1-(1-methyl-2-phenyl-ethyl)-piperidin-4-yl]-isochroman-5-ol dihydrobromide] |
| 13 nM | 12 nM | 575 nM | COc1cccc(CN2CCC([C@@H]3Cc4c(ccc(C)c4O)[C@H](CN)O3)CC2)c1 [Example 31, (1R,3S)-1-Aminomethyl-3-[1-(3-methoxy-benzyl)-piperidin-4-yl]-6-methyl-isochroman-5-ol dihydrochloride] |
| 12 nM | 22 nM | 127 nM | Cc1ccc2c(c1O)C[C@@H](C1CCN(C3Cc4ccccc4C3)CC1)O[C@H]2CN [Example 32, (1R,3S)-1-Aminomethyl-3-(1-indan-2-yl-piperidin-4-yl)-6-methyl-isochroman-5-ol dihydrobromide] |
| 13 nM | 70 nM | ≥ 10000 nM | CCCCN1CCC([C@@H]2Cc3c(ccc(C)c3O)[C@H](CN)O2)CC1 [Example 33, (1R,3S)-1-Aminomethyl-3-(1-butyl-piperidin-4-yl)-6-methyl-isochroman-5-ol dihydrochloride] |
| 66 nM | 47 nM | ≥ 10000 nM | Cc1ccc2c(c1O)C[C@@H](C1CCN(CC3CCCCC3)CC1)O[C@H]2CN [Example 34, (1R,3S)-1-Aminomethyl-3-(1-cyclohexylmethyl-piperidin-4-yl)-6-methyl-isochroman-5-ol dihydrochloride] |
| 44 nM | 42 nM | 96 nM | Cc1ccc2c(c1O)C[C@@H](C1CCN(Cc3ccccc3Cl)CC1)O[C@H]2CN [Example 35, (1R,3S)-1-Aminomethyl-3-[1-(2-chloro-benzyl)-piperidin-4-yl]-6-methyl-isochroman-5-ol dihydrobromide] |
| ≥ 10000 nM |  | 181 nM | Cc1ccc2c(c1O)C[C@@H](C1CCN(Cc3ccccc3)CC1)O[C@H]2CN1CCCC1 [Example 178, (1R,3S)-3-(1-Benzyl-piperidin-4-yl)-6-methyl-1-pyrrolidin-1-ylmethyl-isochroman-5-ol] |
